Measurements taken from EP4559908A1, “HETEROARYL DERIVATIVE COMPOUND AND USE THEREOF” (S2CBio Inc., priority 2022, dated 2024).
Read-outs that look alike come from different tables or passages of the source.

Target: T1, human ANO6 (variant 5) (Homo sapiens, UniProt Q4KMQ2)
T1 construct: expressed in transfected cells; host or cells: Fischer rat thyroid (FRT) cells
T1 sequence (Q4KMQ2 1-931 isoform Q4KMQ2-2): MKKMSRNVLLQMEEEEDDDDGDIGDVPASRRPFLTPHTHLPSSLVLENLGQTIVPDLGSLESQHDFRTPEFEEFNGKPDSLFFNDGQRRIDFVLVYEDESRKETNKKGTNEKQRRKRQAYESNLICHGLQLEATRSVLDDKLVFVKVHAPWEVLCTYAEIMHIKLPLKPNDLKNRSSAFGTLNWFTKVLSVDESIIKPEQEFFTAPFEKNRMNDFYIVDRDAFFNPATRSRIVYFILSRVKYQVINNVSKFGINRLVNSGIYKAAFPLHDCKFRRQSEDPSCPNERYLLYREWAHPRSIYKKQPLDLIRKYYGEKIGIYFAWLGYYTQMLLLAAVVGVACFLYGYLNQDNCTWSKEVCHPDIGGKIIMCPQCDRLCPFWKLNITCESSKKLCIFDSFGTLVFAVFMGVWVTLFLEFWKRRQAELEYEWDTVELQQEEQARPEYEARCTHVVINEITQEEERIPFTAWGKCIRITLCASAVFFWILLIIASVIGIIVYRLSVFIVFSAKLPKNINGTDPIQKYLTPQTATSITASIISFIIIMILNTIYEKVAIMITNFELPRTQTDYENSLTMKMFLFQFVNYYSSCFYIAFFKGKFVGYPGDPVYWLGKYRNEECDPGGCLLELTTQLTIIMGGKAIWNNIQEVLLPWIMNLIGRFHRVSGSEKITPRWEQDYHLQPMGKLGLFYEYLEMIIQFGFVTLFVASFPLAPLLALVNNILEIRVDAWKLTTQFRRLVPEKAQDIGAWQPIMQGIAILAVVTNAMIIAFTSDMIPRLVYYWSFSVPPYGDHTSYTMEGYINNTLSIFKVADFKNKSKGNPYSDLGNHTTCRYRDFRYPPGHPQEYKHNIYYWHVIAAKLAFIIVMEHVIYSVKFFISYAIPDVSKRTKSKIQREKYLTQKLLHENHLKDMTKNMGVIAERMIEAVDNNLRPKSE
Test: Lact C2 assay (measuring phosphatidylserine externalization scramblase function)
Type: cell-based
Details: FRT; for inhibition at 0.05 µM: read-out: % Inhibition 50 nM; for inhibition at 0.1 µM: compound 100 nM; for inhibition at 1 µM: read-out: % Inhibition 1 µM
Procedure: Ionomycin (Alomonelab, cat. # I-700), DAPI (Sigma- Aldrich, cat. # D8417), paraformaldehyde (Biosesang, cat. #P2031), Lionheart FX automated fluorescence microscope (BioTek), Gen5™ software program (BioTek), and Image J analysis software program.
After the incubation, the cells were treated with compounds dissolved in DMSO to 1% v/v in each well at each concentration (50 nM, 100 nM, and 1 µM) and reacted for 10 minutes. Thereafter, each well was treated with ionomycin to a final concentration of 10 µM, allowed to react for 10 minutes, and then washed with 200 µL PBS. After washing, each well was treated with 50 µL of Lactadherin-C2 (Lact-C2)-GFP mixed in DMEM medium to a final concentration of 500 nM to stain phosphatidylserine, and cultured at 37°C for 10 minutes. After completion of the reaction, the cells were washed with 200 µL PBS, and fixed with 4% paraformaldehyde for 5 minutes at room temperature. For morphological analysis, DAPI solution was added, and the cells were incubated for 15 minutes, followed by washing with PBS. The fluorescence intensity of Lact-C2-GFP bound to phosphatidylserine on the cell surface was measured using an automated fluorescence microscope. For quantitative analysis of the fluorescence intensity of Lact-C2-GFP, BioTek Gen5™ software and Image J analysis software programs were used.
Phosphatidylserine externalization inhibitory activity (%) by the compound was calculated through the following analysis method. Specifically, the background fluorescence value was subtracted from the measured Lact-C2-GFP fluorescence value, and the fluorescence value of the ionomycin non-treatment group and the ionomycin-treatment group in the same row where each test group was located in a 96-well microplate were calculated. In order to calculate the inhibitory activity (%) by the compound, the relative inhibitory activity was calculated by setting the compound and ionomycin non-treatment group to 100% inhibitory activity and the ionomycin alone treatment group to 0% inhibitory activity.

[1] = compound 50 nM, FRT cells expressing human ANO6 (variant 5), ionomycin 10 µM, Lact-C2-GFP fluorescence, average of three tests
[2] = FRT cells expressing human ANO6 (variant 5), ionomycin 10 µM, Lact-C2-GFP fluorescence, average of three tests
[3] = compound 1 µM, FRT cells expressing human ANO6 (variant 5), ionomycin 10 µM, Lact-C2-GFP fluorescence, average of three tests

Row | Structure (SMILES) | inhibition at 0.05 µM [1] | inhibition at 0.1 µM [2] | inhibition at 1 µM [3] | inhibition at 0.05 µM | inhibition at 1 µM
1 | Fc1ccc2nc(-c3cccc(Nc4ccc(-c5ccncn5)cn4)c3)[nH]c2c1 [Example 72, N-(3-(6-fluoro-1H-benzo[d]imidazol-2-yl)phenyl)-5-(pyrimidin-4-yl)pyridin-2-amine] | > 60% | > 60% |  |  | 
2 | FC(F)(F)c1ccc2nc(-c3cccc(Nc4ccc(-c5ccncn5)cn4)c3)[nH]c2c1 [Example 88, 5-pyrimidin-4-yl-N-[3-[6-(trifluoromethyl)-1H-benzo[d]imidazol-2-yl]phenyl]pyridin-2-amine] | > 60% |  | > 60% |  | 
3 | c1cc(Nc2cnc(-c3ccncn3)cn2)cc(-c2nc3ccccc3[nH]2)c1 [Example 277, N-(3-(1H-benzo[d]imidazol-2-yl)phenyl)-5-(pyrimidin-4-yl)pyrazin-2-amine] | > 60% |  |  |  | 
4 | Cc1noc(-c2ccc3nc(-c4cccc(Nc5ccc(-c6cccnn6)cc5)c4)[nH]c3c2)n1 [Example 93, 3-(6-(3-methyl-1,2,4-oxadiazol-5-yl)-1H-benzo[d]imidazol-2-yl)-N-(4-(pyridazin-3-yl)phenyl)aniline] | 30 to 60% |  | > 60% |  | 
5 | c1ccc(-c2ccc(Nc3cccc(-c4nc5ccccc5[nH]4)c3)nn2)cc1 [Example 2, N-(3-(1H-benzo[d]imidazol-2-yl)phenyl)-6-phenylpyridazin-3-amine] |  | > 60% | > 60% |  | 
6 | Fc1ccc2nc(-c3cccc(Nc4ccc(-c5ccccn5)cn4)c3)[nH]c2c1 [Example 58, N-(3-(6-fluoro-1H-benzo[d]imidazol-2-yl)phenyl)-[2,3'-bipyridine]-6'-amine] | > 60% | > 60% |  |  | 
7 | FC(F)(F)c1cc2nc(-c3cccc(Nc4ncc(-c5cccnn5)cn4)c3)[nH]c2cc1Cl [Example 294, N-(3-(6-chloro-5-(trifluoromethyl)-1H-benzo[d]imidazol-2-yl)phenyl)-5-(pyridazin-3-yl)pyrimidin-2-amine] | 30 to 60% |  | > 60% |  | 
8 | FC(F)(F)c1ccc2nc(-c3cccc(Nc4ccc(-c5ccncn5)nn4)c3)[nH]c2c1 [Example 296, 6-(pyrimidin-4-yl)-N-(3-(6-(trifluoromethyl)-1H-benzo[d]imidazol-2-yl)phenyl)pyridazin-3-amine] |  |  | 30 to 60% |  | 
9 | COc1cc(-c2cccnn2)ccc1Nc1cccc(-c2nc3ccccc3[nH]2)c1 [Example 210, N-(3-(1H-benzo[d]imidazol-2-yl)phenyl)-2-methoxy-4-(pyridazin-3-yl)aniline] |  |  | 30 to 60% |  | 
10 | O=[N+]([O-])c1ccc2nc(-c3cccc(Nc4ccc(-c5cccnn5)cc4)c3)[nH]c2c1 [Example 227, 3-(6-nitro-1H-benzo[d]imidazol-2-yl)-N-(4-(pyridazin-3-yl)phenyl)aniline] | > 60% |  | > 60% |  | 
11 | c1ccc(-c2cnc(Nc3cccc(-c4nc5ccccc5[nH]4)c3)nc2)nc1 [Example 44, N-(3-(1H-benzo[d]imidazol-2-yl)phenyl)-5-(pyridin-2-yl)pyrimidin-2-amine] | > 60% | > 60% |  |  | 
12 | N#Cc1ccc(Nc2cccc(-c3nc4ccc(C(F)(F)F)cc4[nH]3)c2)nc1 [Example 314, 6-((3-(6-(trifluoromethyl)-1H-benzo[d]imidazol-2-yl)phenyl)amino)nicotinonitrile] | > 60% |  | > 60% |  | 
13 | CN(Cc1ccccc1)c1ccc2nc(-c3cccc(Nc4ccc(-c5cccnn5)cc4)c3)[nH]c2c1 [Example 280, N-benzyl-N-methyl-2-(3-((4-(pyridazin-3-yl)phenyl)amino)phenyl)-1H-benzo[d]imidazol-6-amine] |  |  |  | 30 to 60% | > 60%
14 | Clc1cc2[nH]c(-c3cccc(Nc4ccc(-c5cccnn5)cc4)c3)nc2cn1 [Example 84, 3-(6-chloro-1H-imidazo[4,5-c]pyridin-2-yl)-N-(4-pyridazin-3-ylphenyl)aniline] |  |  | > 60% |  | 
15 | CC(C)(C)c1ccc2nc(-c3cccc(Nc4ccc(-c5ccccc5)nn4)c3)[nH]c2c1 [Example 3, N-[3-(6-tert-butyl-1H-benzo[d]imidazol-2-yl)phenyl]-6-phenylpyridazin-3-amine] | > 60% | > 60% | > 60% |  | 
16 | FC(F)(F)c1cnc2nc(-c3cccc(Nc4ncc(-c5ccccn5)cn4)c3)[nH]c2c1 [Example 243, 5-(pyridin-2-yl)-N-(3-(6-(trifluoromethyl)-1H-imidazo[4,5-b]pyridin-2-yl)phenyl)pyrimidin-2-amine] | 30 to 60% |  | > 60% |  | 
17 | c1cncc(-c2ccc(Nc3cccc(-c4nc5ccccc5[nH]4)c3)cc2)c1 [Example 31, N-[3-(1H-benzo[d]imidazol-2-yl)phenyl]-4-(pyridin-3-yl)aniline] | 30 to 60% | > 60% |  |  | 
18 | Fc1cc2[nH]c(-c3cccc(Nc4ccc(-c5cccnn5)cc4)c3)nc2cc1C(F)(F)F [Example 104, 3-[6-fluoro-5-(trifluoromethyl)-1H-benzo[d]imidazol-2-yl]-N-(4-pyridazin-3-ylphenyl)aniline] | > 60% |  | > 60% |  | 
19 | COc1ccc2nc(-c3cccc(Nc4cnc(-c5ccccn5)cn4)c3)[nH]c2c1 [Example 299, N-(3-(6-methoxy-1H-benzo[d]imidazol-2-yl)phenyl)-5-(pyridin-2-yl)pyrazin-2-amine] |  |  | > 60% |  | 
20 | FC(F)(F)c1ccc2nc(-c3cncc(Nc4ncc(-c5ccccn5)cn4)c3)[nH]c2c1 [Example 307, 5-(pyridin-2-yl)-N-(5-(6-(trifluoromethyl)-1H-benzo[d]imidazol-2-yl)pyridin-3-yl)pyrimidin-2-amine] |  |  | 30 to 60% |  | 
21 | FC(F)(F)c1ccc2nc(-c3cccc(Nc4ccc(-c5cnccn5)cc4)c3)[nH]c2c1 [Example 29, N-[4-(pyrazin-2-yl)phenyl]-3-[6-(trifluoromethyl)-1H-benzo[d]imidazol-2-yl]aniline] | > 60% | > 60% |  |  | 
22 | FC(F)Oc1ccc2nc(-c3cccc(Nc4ccc(-c5ccccn5)cn4)c3)[nH]c2c1 [Example 284, N-(3-(6-(difluoromethoxy)-1H-benzo[d]imidazol-2-yl)phenyl)-[2,3'-bipyridin]-6'-amine] | > 60% |  | > 60% |  | 
23 | c1cc(Nc2ccc(-c3cnccn3)cc2)cc(-c2nc3ccccc3[nH]2)c1 [Example 32, 3-(1H-benzo[d]imidazol-2-yl)-N-(4-(pyrazin-2-yl)phenyl)aniline] | 30 to 60% | 30 to 60% |  |  | 
24 | FC(F)(F)c1ccc2nc(-c3cccc(Nc4ccc(-c5ccccc5)nn4)c3)[nH]c2c1 [Example 1, 6-phenyl-N-(3-(6-(trifluoromethyl)-1H-benzo[d]imidazol-2-yl)phenyl)pyridazin-3-amine] | 30 to 60% | > 60% | > 60% |  | 
25 | Clc1cc2nc(-c3cccc(Nc4ccc(-c5cccnn5)cc4)c3)[nH]c2cc1Cl [Example 225, 3-(5,6-dichloro-1H-benzo[d]imidazol-2-yl)-N-(4-(pyridazin-3-yl)phenyl)aniline] | > 60% |  |  |  | 
